According to patent US10882844B2, “Compounds useful as immunomodulators” (Bristol-Myers Squibb Company, priority 2016, dated 2021):

biological target: PD-1/PD-L1 (Homo sapiens (Human), UniProt Q9NZQ7); assay: PD-1/PD-L1 Homogenous Time-Resolved Fluorescence (HTRF) binding assay; conditions: PD-1-Ig / PD-L1-His HTRF; value given as number; read-out: Range or IC50
From the text: The ability of the compounds of formula (I) to bind to PD-L1 was investigated using a PD-1/PD-L1 Homogenous Time-Resolved Fluorescence (HTRF) binding assay.
Homogenous Time-Resolved Fluorescence (HTRF) binding assay.
The interaction of PD-1 and PD-L1 can be assessed using soluble, purified preparations of the extracellular domains of the two proteins. The PD-1 and PD-L1 protein extracellular domains were expressed as fusion proteins with detection tags, for PD-1, the tag was the Fc portion of Immunoglobulin (PD-1-Ig) and for PD-L1 it was the 6 histidine motif (PD-L1-His). All binding studies were performed in an HTRF assay buffer consisting of dPBS supplemented with 0.1% […] bovine serum albumin and 0.05% (v/v) Tween-20. For the h/PD-L1-His binding assay, inhibitors were pre-incubated with PD-L1-His (10 nM final) for 15 m in 4 μl of assay buffer, followed by addition of PD-1-Ig (20 nM final) in 1 μl of assay buffer and further incubation for 15 m. HTRF detection was achieved using europium crypate-labeled anti-Ig (1 nM final) and allophycocyanin (APC) labeled anti-His (20 nM final). Antibodies were diluted in HTRF detection buffer and 5 μl was dispensed on top of the binding reaction. The reaction mixture was allowed to equilibrate for 30 minutes and the resulting signal (665 nm/620 nm ratio) was obtained using an EnVision fluorometer. Additional binding assays were established between the human proteins PD-1-Ig/PD-L2-His (20 & 5 nM, respectively) and CD8O-His/PD-L1-Ig (100 & 10 nM, respectively).
Recombinant Proteins: Human PD-1 (25-167) with a C-terminal human Fc domain of immunoglobulin G (Ig) epitope tag [hPD-1 (25-167)-3S-IG] and human PD-L1 (18-239) with a C-terminal His epitope tag [hPD-L1(18-239)-TVMV-His] were expressed in HEK293T cells and purified sequentially by ProteinA affinity chromatography and size exclusion chromatography. Human PD-L2-His and CD80-His was obtained through commercial sources.
The table below lists the IC50 values for representative examples of this disclosure measured in the PD-1/PD-L1 Homogenous Time-Resolved Fluorescence (HTRF) binding assay. Ranges are as follows: A=0.18 nM-0.99 nM; B=1.0 nM-5.0 nM; C=5.01 nM-10.1 nM; D=10.2 nM-200 nM; E=201 nM→10 uM

Sequence of PD-1/PD-L1 (Q9NZQ7 other isoform, or with tags, fused parts or gaps): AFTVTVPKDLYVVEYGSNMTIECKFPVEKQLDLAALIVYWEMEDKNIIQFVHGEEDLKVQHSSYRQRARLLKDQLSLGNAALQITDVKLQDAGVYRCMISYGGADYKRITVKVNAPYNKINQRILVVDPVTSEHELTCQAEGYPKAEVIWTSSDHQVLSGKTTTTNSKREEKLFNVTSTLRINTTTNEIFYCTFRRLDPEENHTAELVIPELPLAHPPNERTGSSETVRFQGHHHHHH

SMILES | IC50
Cc1c(COc2cc(OCc3cncc(C#N)c3)c(CN3CCCC[C@H]3C(=O)O)cc2Cl)cccc1-c1ccc2ncc(C3=CCCNC3)nc2c1 [Example 1027, (S)-1-(5-Chloro-2-((5-cyanopyridin-3-yl)methoxy)-4-((2-methyl-3-(3-(1,2,5,6-tetra-hydropyridin-3-yl)quinoxalin-6-yl)benzyl)oxy)benzyl)piperidine-2-carboxylic Acid] | 1.7 nM
Cc1c(COc2cc(OCc3cncc(C#N)c3)c(CN(C)C(CO)CO)cc2Cl)cccc1-c1ccc2oc(N3C[C@@H]4C[C@H]3CN4C)nc2c1 [Example 2001] | 3.8 nM

same assay, conditions: PD-1-Ig / PD-L1-His HTRF; value given as range class; read-out: Range or IC50

SMILES | IC50
Cc1c(COc2cc(OCc3cncc(C#N)c3)c(CN3CCCC[C@H]3C(=O)O)cc2Cl)cccc1-c1ccc2nc(C3CCN(C)CC3)oc2c1 [Example 1002, (S)-1-(5-chloro-2-((5-cyanopyridin-3-yl)methoxy)-4-((2-methyl-3-(2-(1-methylpiperidin-4-yl)benzo[d]oxazol-6-yl)benzyl)oxy)benzyl)piperidine-2-carboxylic Acid] | 1 to 5 nM
Cc1c(COc2cc(OCc3cncc(C#N)c3)c(CN3CCCC[C@H]3C(=O)O)cc2Cl)cccc1-c1ccc2oc(C3(C)CCNCC3)nc2c1 [Example 1011, (S)-1-(5-chloro-2-((5-cyanopyridin-3-yl)methoxy)-4-((2-methyl-3-(2-(4-methylpiperidin-4-yl)benzo[d]oxazol-5-yl)benzyl)oxy)benzyl)piperidine-2-carboxylic Acid] | 1 to 5 nM
Cc1c(COc2cc(OCc3cncc(C#N)c3)c(CN[C@@](C)(CO)C(=O)O)cc2Cl)cccc1-c1ccc2oc(N3CCN(C)CC3)nc2c1 [Example 2011, (S)-2-((5-chloro-2-((5-cyanopyridin-3-yl)methoxy)-4-((2-methyl-3-(2-(4-methylpiperazin-1-yl)benzo[d]oxazol-5-yl)benzyl)oxy)benzyl)amino)-3-hydroxy-2-methylpropanoic Acid] | 1 to 5 nM
CCC[C@@H](C(=O)O)N(C)Cc1cc(Cl)c(OCc2cccc(-c3ccc4oc(N5CCN(C)CC5)nc4c3)c2C)cc1OCc1cncc(C#N)c1 [Example 2018, (S)-2-((5-chloro-2-((5-cyanopyridin-3-yl)methoxy)-4-((2-methyl-3-(2-(4-methylpiperazin-1-yl)benzo[d]oxazol-5-yl)benzyl)oxy)benzyl)(methyl)amino)pentanoic Acid] | 1 to 5 nM
Cc1c(COc2cc(OCc3cncc(C#N)c3)c(CN3CCCC[C@H]3C(=O)O)cc2Cl)cccc1-c1ccc2oc(C3CCCN(C)C3)nc2c1 (stereo partly drawn) [Example 1003, (2S)-1-(5-chloro-2-((5-cyanopyridin-3-yl)methoxy)-4-((2-methyl-3-(2-(1-methylpiperidin-3-yl)benzo[d]oxazol-5-yl)benzyl)oxy)benzyl)piperidine-2-carboxylic Acid] | 1 to 5 nM
COC(=O)C1CCC(c2nc3cc(-c4cccc(COc5cc(OCc6cncc(C#N)c6)c(CN6CCCC[C@H]6C(=O)O)cc5Cl)c4C)ccc3o2)CC1 (stereo partly drawn) [Example 1024, (S)-1-(5-chloro-2-((5-cyanopyridin-3-yl)methoxy)-4-((3-(2-(4-(methoxycarbonyl)cyclohexyl)benzo[d]oxazol-5-yl)-2-methylbenzyl)oxy)benzyl)piperidine-2-carboxylic acid] | 1 to 5 nM
Cc1c(COc2cc(OCc3cncc(C#N)c3)c(CN3CCCC[C@H]3C(=O)O)cc2Cl)cccc1-c1ccc2oc(C3CCN(C)CC3)nc2c1 [Example 1001, (S)-1-(5-chloro-2-((5-cyanopyridin-3-yl)methoxy)-4-((2-methyl-3-(2-(1-methylpiperidin-4-yl)benzo[d]oxazol-5-yl)benzyl)oxy)benzyl)piperidine-2-carboxylic Acid] | 0.18 to 0.99 nM
Cc1c(COc2cc(OCc3cncc(C#N)c3)c(CN3CCCC[C@H]3C(=O)O)cc2Cl)cccc1-c1ccc2oc(C3CCN(C4CC4)CC3)nc2c1 [Example 1005, (S)-1-(5-chloro-2-((5-cyanopyridin-3-yl)methoxy)-4-((3-(2-(1-cyclopropylpiperidin-4-yl)benzo[d]oxazol-5-yl)-2-methylbenzyl)oxy)benzyl)piperidine-2-carboxylic Acid] | 1 to 5 nM
Cc1c(COc2cc(OCc3cncc(C#N)c3)c(CN3CCCC[C@H]3C(=O)O)cc2Cl)cccc1-c1ccc2oc(C3CCNCC3)nc2c1 [Example 1004, (S)-1-(5-chloro-2-((5-cyanopyridin-3-yl)methoxy)-4-((2-methyl-3-(2-(piperidin-4-yl)benzo[d]oxazol-5-yl)benzyl)oxy)benzyl)piperidine-2-carboxylic Acid] | 1 to 5 nM
Cc1c(COc2cc(OCc3cncc(C#N)c3)c(CN(C)C(CO)CO)cc2Cl)cccc1-c1ccc2oc(N3CCN(C)CC3)nc2c1 [Example 2014] | 1 to 5 nM
Cc1c(COc2cc(OCc3cncc(C#N)c3)c(CN(C)[C@@](C)(CO)C(=O)O)cc2Cl)cccc1-c1ccc2oc(N3CCN(C)CC3)nc2c1 [Example 2017, (S)-2-((5-chloro-2-((5-cyanopyridin-3-yl)methoxy)-4-((2-methyl-3-(2-(4-methylpiperazin-1-yl)benzo[d]oxazol-5-yl)benzyl)oxy)benzyl)(methyl)amino)-3-hydroxy-2-methylpropanoic Acid] | 0.18 to 0.99 nM
Cc1c(COc2cc(OCc3cncc(C#N)c3)c(CN3CCCC[C@H]3C(=O)O)cc2Cl)cccc1-c1ccc2oc(N3C[C@@H]4C[C@H]3CN4C)nc2c1 [Example 2002, (S)-1-(5-chloro-2-((5-cyanopyridin-3-yl)methoxy)-4-((2-methyl-3-(2-((1S,4S)-5-methyl-2,5-diazabicyclo[2.2.1]heptan-2-yl)benzo[d]oxazol-5-yl)benzyl)oxy)benzyl)piperidine-2-carboxylic Acid] | 5.01 to 10.1 nM
Cc1c(COc2cc(OCc3cncc(C#N)c3)c(CN[C@H](C(=O)O)C(C)C)cc2Cl)cccc1-c1ccc2oc(N3CCN(C)CC3)nc2c1 [Example 2013, (S)-2-((5-chloro-2-((5-cyanopyridin-3-yl)methoxy)-4-((2-methyl-3-(2-(4-methylpiperazin-1-yl)benzo[d]oxazol-5-yl)benzyl)oxy)benzyl)amino)-3-methylbutanoic Acid] | 1 to 5 nM
Cc1c(COc2cc(OCc3cncc(C#N)c3)c(CN(C)[C@@H](CO)C(=O)O)cc2Cl)cccc1-c1ccc2oc(N3CCN(C)CC3)nc2c1 [Example 2016, N-(5-chloro-2-((5-cyanopyridin-3-yl)methoxy)-4-((2-methyl-3-(2-(4-methylpiperazin-1-yl)benzo[d]oxazol-5-yl)benzyl)oxy)benzyl)-N-methyl-L-serine] | 1 to 5 nM
Cc1c(COc2cc(OCc3cncc(C#N)c3)c(CN3CCCC[C@H]3C(=O)O)cc2Cl)cccc1-c1ccc2ncc(C3=CCNCC3)nc2c1 [Example 1030, (S)-1-(5-chloro-2-((5-cyanopyridin-3-yl)methoxy)-4-((2-methyl-3-(3-(1,2,3,6-tetrahydropyridin-4-yl)quinoxalin-6-yl)benzyl)oxy)benzyl)piperidine-2-carboxylic Acid] | 0.18 to 0.99 nM
Cc1c(COc2cc(OCc3cncc(C#N)c3)c(CN3CCCC[C@H]3C(=O)O)cc2Cl)cccc1-c1ccc2ncc(C3=CC4CCC(C3)N4)nc2c1 (stereo partly drawn) [Example 1029, (2S)-1-(4-((3-(3-(8-Azabicyclo[3.2.1]oct-2-en-3-yl)quinoxalin-6-yl)-2-methylbenzyl)-oxy)-5-chloro-2-((5-cyanopyridin-3-yl)methoxy)benzyl)piperidine-2-carboxylic acid] | 1 to 5 nM
Cc1c(COc2cc(OCc3cncc(C#N)c3)c(CN[C@@H](CO)C(=O)O)cc2Cl)cccc1-c1ccc2oc(N3CCN(C)CC3)nc2c1 [Example 2010, (5-chloro-2-((5-cyanopyridin-3-yl)methoxy)-4-((2-methyl-3-(2-(4-methylpiperazin-1-yl)benzo[d]oxazol-5-yl)benzyl)oxy)benzyl)-L-serine] | 1 to 5 nM
Cc1c(COc2cc(OCc3cncc(C#N)c3)c(CN3CCCC[C@H]3C(=O)O)cc2Cl)cccc1-c1ccc2oc(N3CCN(C)CC3)nc2c1 [Example 2007, (S)-1-(5-chloro-2-((5-cyanopyridin-3-yl)methoxy)-4-((2-methyl-3-(2-(4-methylpiperazin-1-yl)benzo[d]oxazol-5-yl)benzyl)oxy)benzyl)piperidine-2-carboxylic Acid] | 1 to 5 nM
Cc1c(COc2cc(OCc3cncc(C#N)c3)c(CN3CCCC[C@H]3C(=O)O)cc2Cl)cccc1-c1cc(C)c2oc(C3CCN(C)CC3)nc2c1 [Example 1009, (S)-1-(5-chloro-2-((5-cyanopyridin-3-yl)methoxy)-4-((2-methyl-3-(7-methyl-2-(1-methylpiperidin-4-yl)benzo[d]oxazol-5-yl)benzyl)oxy)benzyl)piperidine-2-carboxylic Acid] | 1 to 5 nM
